In ChEMBL document CHEMBL3885881, “DrugMatrix”:

Species: Rattus norvegicus
Assay: DrugMatrix - Regimen: Daily Repeat
Assay type: toxicity, organism-based, Sprague-Dawley
Parameters: regimen Daily Repeat, gender Male, age 6-8 weeks
Details: in vivo, po, route oral GAVAGE, vehicle 100 % WATER; for ABSOLUTE BASOPHIL / ABSOLUTE EOSINOPHIL / ABSOLUTE LYMPHOCYTE / ABSOLUTE MONOCYTE / ABSOLUTE SEGMENTED NEUTROPHIL / BASOPHIL / EOSINOPHIL / ERYTHROCYTE COUNT / HEMATOCRIT / HEMOGLOBIN / LEUKOCYTE COUNT / LYMPHOCYTE / MEAN CORPUSCULAR HEMOGLOBIN / MEAN CORPUSCULAR HEMOGLOBIN CONCENTRATION / MEAN CORPUSCULAR VOLUME / MONOCYTE / NEUTROPHIL / NUCLEATED RED BLOOD CELLS / PLATELET COUNT: tissue Blood; for ALANINE AMINOTRANSFERASE / ALBUMIN / ALKALINE PHOSPHATASE / ASPARTATE AMINOTRANSFERASE / BLOOD UREA NITROGEN / CARBON DIOXIDE / CHLORIDE / CHOLESTEROL / CREATINE PHOSPHOKINASE / CREATININE / GLUCOSE / LACTATE DEHYDROGENASE / LIPASE / PHOSPHORUS / POTASSIUM / SODIUM / TOTAL BILIRUBIN / TOTAL PROTEIN / URIC ACID: tissue Plasma
[1] = 5 mg/kg, 120 h, dose level Low, time 5 day
[2] = 15 mg/kg, 72 h, dose level High, time 3 day
[3] = 15 mg/kg, 120 h, dose level High, time 5 day

C[N+](C)(C)CCOC(N)=O.[Cl-] [CARBACHOL]
ABSOLUTE BASOPHIL [1]: 0 CELLS/uL | ABSOLUTE EOSINOPHIL [1]: 0 CELLS/uL | ABSOLUTE LYMPHOCYTE [1]: 11606.67 CELLS/uL | ABSOLUTE MONOCYTE [1]: 117 CELLS/uL | ABSOLUTE SEGMENTED NEUTROPHIL [1]: 1076.33 CELLS/uL | BASOPHIL [1]: 0% | EOSINOPHIL [1]: 0% | ERYTHROCYTE COUNT [1]: 5.68 x10E6/uL | HEMATOCRIT [1]: 35.2% | HEMOGLOBIN [1]: 13.47 G/DL | LEUKOCYTE COUNT [1]: 12.8 x10E3/uL | LYMPHOCYTE [1]: 90.33% | MEAN CORPUSCULAR HEMOGLOBIN [1]: 23.7 pg | MEAN CORPUSCULAR HEMOGLOBIN CONCENTRATION [1]: 38.27 G/DL | MEAN CORPUSCULAR VOLUME [1]: 62 fL | MONOCYTE [1]: 1% | NEUTROPHIL [1]: 8.67% | NUCLEATED RED BLOOD CELLS [1]: 0 /100WBC | PLATELET COUNT [1]: 1163.67 x10E3/uL | ALANINE AMINOTRANSFERASE [1]: 62.33 u/L | ALBUMIN [1]: 3.97 G/DL | ALKALINE PHOSPHATASE [1]: 368 u/L | ASPARTATE AMINOTRANSFERASE [1]: 96.33 u/L | BLOOD UREA NITROGEN [1]: 14.67 mg/dL | CARBON DIOXIDE [1]: 33.33 mmol/L | CHLORIDE [1]: 99.33 MEQ/L | CHOLESTEROL [1]: 68.33 mg/dL | CREATINE PHOSPHOKINASE [1]: 498.67 u/L | CREATININE [1]: 0.15 mg/dL | GLUCOSE [1]: 136.67 mg/dL | LACTATE DEHYDROGENASE [1]: 139.33 u/L | LIPASE [1]: 8.67 u/L | PHOSPHORUS [1]: 10.83 mg/dL | POTASSIUM [1]: 5.88 MEQ/L | SODIUM [1]: 143.33 MEQ/L | TOTAL BILIRUBIN [1]: 0.2 mg/dL | TOTAL PROTEIN [1]: 5.77 G/DL | URIC ACID [1]: 0.63 mg/dL | ABSOLUTE BASOPHIL [2]: 0 CELLS/uL | ABSOLUTE EOSINOPHIL [2]: 0 CELLS/uL | ABSOLUTE LYMPHOCYTE [2]: 9349.33 CELLS/uL | ABSOLUTE MONOCYTE [2]: 72.33 CELLS/uL | ABSOLUTE SEGMENTED NEUTROPHIL [2]: 311.67 CELLS/uL | BASOPHIL [2]: 0% | EOSINOPHIL [2]: 0% | ERYTHROCYTE COUNT [2]: 5.27 x10E6/uL | HEMATOCRIT [2]: 33.67% | HEMOGLOBIN [2]: 12.87 G/DL | LEUKOCYTE COUNT [2]: 9.73 x10E3/uL | LYMPHOCYTE [2]: 95.67% | MEAN CORPUSCULAR HEMOGLOBIN [2]: 24.4 pg | MEAN CORPUSCULAR HEMOGLOBIN CONCENTRATION [2]: 38.23 G/DL | MEAN CORPUSCULAR VOLUME [2]: 63.83 fL | MONOCYTE [2]: 0.67% | NEUTROPHIL [2]: 3.67% | NUCLEATED RED BLOOD CELLS [2]: 0 /100WBC | PLATELET COUNT [2]: 1174 x10E3/uL | ALANINE AMINOTRANSFERASE [2]: 42.33 u/L | ALBUMIN [2]: 3.9 G/DL | ALKALINE PHOSPHATASE [2]: 336.33 u/L | ASPARTATE AMINOTRANSFERASE [2]: 77 u/L | BLOOD UREA NITROGEN [2]: 11.33 mg/dL | CARBON DIOXIDE [2]: 34 mmol/L | CHLORIDE [2]: 101 MEQ/L | CHOLESTEROL [2]: 72 mg/dL | CREATINE PHOSPHOKINASE [2]: 402.67 u/L | CREATININE [2]: 0.11 mg/dL | GLUCOSE [2]: 134.67 mg/dL | LACTATE DEHYDROGENASE [2]: 129.33 u/L | LIPASE [2]: 9 u/L | PHOSPHORUS [2]: 11.9 mg/dL | POTASSIUM [2]: 5.89 MEQ/L | SODIUM [2]: 146.47 MEQ/L | TOTAL BILIRUBIN [2]: 0.13 mg/dL | TOTAL PROTEIN [2]: 5.67 G/DL | URIC ACID [2]: 0.5 mg/dL | ABSOLUTE BASOPHIL [3]: 0 CELLS/uL | ABSOLUTE EOSINOPHIL [3]: 48 CELLS/uL | ABSOLUTE LYMPHOCYTE [3]: 6680.67 CELLS/uL | ABSOLUTE MONOCYTE [3]: 148.67 CELLS/uL | ABSOLUTE SEGMENTED NEUTROPHIL [3]: 722.67 CELLS/uL | BASOPHIL [3]: 0% | EOSINOPHIL [3]: 0.67% | ERYTHROCYTE COUNT [3]: 5.28 x10E6/uL | HEMATOCRIT [3]: 33.7% | HEMOGLOBIN [3]: 13.03 G/DL | LEUKOCYTE COUNT [3]: 7.6 x10E3/uL | LYMPHOCYTE [3]: 87.67% | MEAN CORPUSCULAR HEMOGLOBIN [3]: 24.73 pg | MEAN CORPUSCULAR HEMOGLOBIN CONCENTRATION [3]: 38.7 G/DL | MEAN CORPUSCULAR VOLUME [3]: 63.97 fL | MONOCYTE [3]: 2% | NEUTROPHIL [3]: 9.67% | NUCLEATED RED BLOOD CELLS [3]: 0 /100WBC | PLATELET COUNT [3]: 1083.67 x10E3/uL | ALANINE AMINOTRANSFERASE [3]: 53 u/L | ALBUMIN [3]: 3.73 G/DL | ALKALINE PHOSPHATASE [3]: 301 u/L | ASPARTATE AMINOTRANSFERASE [3]: 93 u/L | BLOOD UREA NITROGEN [3]: 15.67 mg/dL | CARBON DIOXIDE [3]: 30.67 mmol/L | CHLORIDE [3]: 101.67 MEQ/L | CHOLESTEROL [3]: 64 mg/dL | CREATINE PHOSPHOKINASE [3]: 243.33 u/L | CREATININE [3]: 0.18 mg/dL | GLUCOSE [3]: 145.67 mg/dL | LACTATE DEHYDROGENASE [3]: 116.33 u/L | LIPASE [3]: 11 u/L | PHOSPHORUS [3]: 10.67 mg/dL | POTASSIUM [3]: 5.44 MEQ/L | SODIUM [3]: 146.13 MEQ/L | TOTAL BILIRUBIN [3]: 0.1 mg/dL | TOTAL PROTEIN [3]: 5.47 G/DL | URIC ACID [3]: 0.57 mg/dL
